The source of these data is patent US20230011571A1, “SMALL MOLECULE FURIN INHIBITORS FOR TREATING INFECTIOUS DISEASES” (BP Asset V, Inc., priority 2019, published 2023).

Format in all cases: cell-based
Test [1] relates to Chikungunya virus (CHIKV). The test can be described thus: microbe, parasite or virus in culture. As to conditions: for inhibition at 1 µM: Chikungunya virus, Vero, 48 h, read-out: Percent viral inhibition CHKV.
The test system of test [2] is Marburg virus (MARV). The test can be described thus: organism not typed. The note with it: for inhibition at 1 µM: Vero, 72 h, read-out: Percent viral inhibition MARV.
Test [3] relates to dengue virus (DENV). As to the kind of experiment: microbe, parasite or virus in culture. As to conditions: for inhibition at 1 µM: Dengue virus, Vero, 120 h, read-out: Percent viral inhibition DENY.

Molecules are shown by their SMILES.

By inhibition is commonly meant the drop in the measured response relative to a control, in per cent.

Take `O=C(O)CC1CCN(Cc2cc(Oc3cnc(N4CCN(CCC5(O)CC5)CC4)nc3)nc(-c3cc(Cl)cc(Cl)c3)c2)CC1` [Example 278, 2-(1-((2-(3,5-dichlorophenyl)-6-((2-(4-(2-(1-hydroxycyclopropyl)ethyl)piperazin-1-yl)pyrimidin-5-yl)oxy)pyridin-4-yl)methyl)piperidin-4-yl)acetic acid]: the inhibition at 1 µM worked out at 45.6% in test [1], 81.7% in test [2] and 45.5% in test [3].
For the compound `CC(C)(O)CCN1CCN(c2ncc(Oc3cc(CN4CCC(CC(=O)O)CC4)cc(-c4cc(Cl)cc(Cl)c4)n3)cn2)CC1` [Example 279, 2-(1-((2-(3,5-dichlorophenyl)-6-((2-(4-(3-hydroxy-3-methylbutyl)piperazin-1-yl)pyrimidin-5-yl)oxy)pyridin-4-yl)methyl)piperidin-4-yl)acetic acid], the inhibition at 1 µM was 37.8% in test [1], 18.8% in test [2] and 27.5% in test [3].
Consider `CC(=O)NCC1CCN(Cc2cc(Oc3cnc(N4CCN(C(C)CC(=O)O)CC4)nc3)nc(-c3cc(Cl)cc(Cl)c3)c2)CC1` (stereo not drawn) [Example 282, 3-(4-(5-((4-((4-(acetamidomethyl)piperidin-1-yl)methyl)-6-(3,5-dichlorophenyl)pyridin-2-yl)oxy)pyrimidin-2-yl)piperazin-1-yl)butanoic acid], for which the inhibition at 1 µM in test [1] came to 8.2%; in test [2] it was 63.7%; in test [3] it was 21.8%.
With `CC(=O)NCC1CCN(Cc2cc(Oc3cnc(N4CCN(CC(C)C(=O)O)CC4)nc3)nc(-c3cc(Cl)cc(Cl)c3)c2)CC1` (stereo not drawn) [Example 283, 3-(4-(5-((4-((4-(acetamidomethyl)piperidin-1-yl)methyl)-6-(3,5-dichlorophenyl)pyridin-2-yl)oxy)pyrimidin-2-yl)piperazin-1-yl)-2-methylpropanoic acid], the inhibition at 1 µM was found to be 29.8% in test [1], 49.6% in test [2] and 43.8% in test [3].
`CC(=O)NCC1CCN(Cc2cc(Oc3cnc(N4CCN(CCS(C)(=O)=O)CC4)nc3)nc(-c3cc(Cl)cc(Cl)c3)c2)CC1` [Example 285, N-((1-((2-(3,5-dichlorophenyl)-6-((2-(4-(2-(methylsulfonyl)ethyl)piperazin-1-yl)pyrimidin-5-yl)oxy)pyridin-4-yl)methyl)piperidin-4-yl)methyl)acetamide]: the inhibition at 1 µM in test [1] worked out at 35.3%; in test [2] it was 80.4%; in test [3] it was 22.9%.
For `CC(=O)NCC1CCN(Cc2cc(Oc3cnc(N4CCN(CCS(N)(=O)=O)CC4)nc3)nc(-c3cc(Cl)cc(Cl)c3)c2)CC1` [Example 286, N-((1-((2-(3,5-dichlorophenyl)-6-((2-(4-(2-sulfamoylethyl)piperazin-1-yl)pyrimidin-5-yl)oxy)pyridin-4-yl)methyl)piperidin-4-yl)methyl)acetamide] the same measures were 0%, 19.2% and 0%.
For `CCC(CN1CCN(c2ccc(Oc3cc(CN4CCC(CNC(C)=O)CC4)cc(-c4cc(Cl)cc(Cl)c4)n3)cn2)CC1)C(=O)O` (stereo not drawn) [Example 288, 2-((4-(5-((4-((4-(acetamidomethyl)piperidin-1-yl)methyl)-6-(3,5-dichlorophenyl)pyridin-2-yl)oxy)pyridin-2-yl)piperazin-1-yl)methyl)butanoic acid] the same measures were 28.2%, 49.1% and 52.2%.
For `CC(=O)NCC1CCN(Cc2cc(Oc3ccc(N4CCN(CCS(N)(=O)=O)CC4)nc3)nc(-c3cc(Cl)cc(Cl)c3)c2)CC1` [Example 289, N-((1-((2-(3,5-dichlorophenyl)-6-((6-(4-(2-sulfamoylethyl)piperazin-1-yl)pyridin-3-yl)oxy)pyridin-4-yl)methyl)piperidin-4-yl)methyl)acetamide], in test [1] (1 µM), the “Percent viral inhibition CHKV” value came to 28.95%. In addition, the “Percent viral inhibition MARV” value in test [2] (1 µM) was found to be 40.64%. In addition, in test [3] (1 µM), the “Percent viral inhibition DENY” value turned out to be 43.48%.
For the compound `CNC(=O)NCC1CCN(Cc2cc(Oc3ccc(N4CCN(CCS(C)(=O)=O)CC4)nc3)nc(-c3cc(Cl)cc(Cl)c3)c2)CC1` [Example 290, 1-((1-((2-(3,5-dichlorophenyl)-6-((6-(4-(2-(methylsulfonyl)ethyl)piperazin-1-yl)pyridin-3-yl)oxy)pyridin-4-yl)methyl)piperidin-4-yl)methyl)-3-methylurea], the figures for the inhibition at 1 µM in test [1], in test [2] and in test [3] were 0%, 50.6% and 18.9%, respectively.
For `CNC(=O)NCC1CCN(Cc2cc(Oc3cnc(N4CCN(CC(C)C(=O)O)CC4)nc3)cc(-c3cc(Cl)cc(Cl)c3)c2)CC1` (stereo not drawn) [Example 292, 3-(4-(5-((3′,5′-dichloro-5-((4-((3-methylureido)methyl)piperidin-1-yl)methyl)-[1,1′-biphenyl]-3-yl)oxy)pyrimidin-2-yl)piperazin-1-yl)-2-methylpropanoic acid] the same measures were 15.9%, 54.2% and 26%.
For `CC(=O)NCC1CCN(Cc2cc(Oc3ccc(N4CCN(CCS(C)(=O)=O)CC4)nc3)cc(-c3cc(Cl)cc(Cl)c3)c2)CC1` [Example 293, N-((1-((3′,5′-dichloro-5-((6-(4-(2-(methylsulfonyl)ethyl)piperazin-1-yl)pyridin-3-yl)oxy)-[1,1′-biphenyl]-3-yl)methyl)piperidin-4-yl)methyl)acetamide] the same measures were 0%, 0% and 0%.
For `COC(=O)NCC1CCN(Cc2cc(Oc3cnc(N4CCN(CCC(=O)O)[C@@H](C)C4)nc3)nc(-c3cc(Cl)cc(Cl)c3)c2)CC1` [Example 294, (S)-3-(4-(5-((6-(3,5-dichlorophenyl)-4-((4-(((methoxycarbonyl)amino)methyl)piperidin-1-yl)methyl)pyridin-2-yl)oxy)pyrimidin-2-yl)-2-methyl-piperazin-1-yl)propanoic acid] the same measures were 28.7%, 54.2% and 57.7%.
As to `C[C@@H](O)CN1CCN(c2ncc(Oc3cc(CN4CCC(CC(=O)O)CC4)cc(-c4cc(Cl)cc(Cl)c4)n3)cn2)CC1` [Example 298, (R)-2-(1-((2-(3,5-dichlorophenyl)-6-((2-(4-(2-hydroxypropyl)piperazin-1-yl)pyrimidin-5-yl)oxy)pyridin-4-yl)methyl)piperidin-4-yl)acetic acid], the inhibition at 1 µM was found to be 20.7% in test [1], 55.1% in test [2] and 57% in test [3].
For `O=C(O)CC1CCN(Cc2cc(Oc3ccc(N4CCN(CCO)CC4)nc3)nc(-c3cc(Cl)cc(Cl)c3)c2)CC1` [Example 300, 2-(1-((2-(3,5-dichlorophenyl)-6-((6-(4-(2-hydroxyethyl)piperazin-1-yl)pyridin-3-yl)oxy)pyridin-4-yl)methyl)piperidin-4-yl)acetic acid] the same measures were 18.2%, 45% and 0%.
